This assay in a line: Inhibitory activity against beta-glucosidase of sweet almond.

In turn, `C[C@@H]1NC[C@@H](CO)[C@@H](O)[C@@H]1O` [5-Hydroxymethyl-2-methyl-piperidine-3,4-diol] registered an inhibition constant Ki of 2100 nM.

As usually defined, the Ki is the dissociation constant of the complex between target and ligand, obtained from inhibition or displacement.

For the origin of these results see BindingDB's records for doi:10.1016/s0960-894x(99)00042-6 (1999).
